# Results from patent US5668128A, “Aziridine derivatives, their production and use” (Takeda Chemical Industries, Ltd., priority 1994, dated 1997).
# Counter-ions that a name gives are not always drawn.
# Key:
# [1] = target: T1, human recombinant cathepsin L (Homo sapiens, UniProt P07711); experiment: Determination of cathepsin L inhibitory activity; format: biochemical; settings: pH 5.5, 37° C., 20 minutes, Z-Phe-Arg-7MCA substrate; read-out: Inhibitory activity potency IC50 (ng/ml) Cathepsin L (converted)
# T1 construct: they were identified as a precursor of human cathepsin L and a product processed therefrom, estimated from these molecular weights; made in house; host or cells: mouse myeloma Sp2/0 cells transformed with pTBN-HCLneo (Sp-HCL26); purified from serum-free culture supernatant on CM-Sephadex C-50 and Mono S
# Procedure: The bioactivities of the compounds of this invention are described below. The compounds [I] or salts thereof have activities of inhibiting cathepsin L and cathepsin B, and of potently inhibiting thiol protease. Their inhibitory activities against cathepsin L were determined by the methods described below.
# Determination of cathepsin L inhibitory activity
# To 75 μl of a reaction mixture containing 1 ng of human recombinant cathepsin L (as produced in Reference Examples 1 through 7 below), 2 μM of dithiothreitol (hereinafter abbreviated as DTT), 1 mM of ethylenediamine tetraacetate disodium salt, a 0.1M sodium acetate buffer solution (pH 5.5) and various concentrations of test samples, 25 μl of 20 μM benzyloxycarbonyl-L-phenylalanyl-L-arginine-4-methylcoumaryl-7-amide (hereinafter abbreviated as Z-Phe-Arg-7MCA, manufactured by Peptide Institute) was added to initiate the reaction. After incubation at 37° C. for 20 minutes, 100 μl of a reaction stopper solution containing 100 mM sodium monochloroacetate was added. The amount of liberated 4-methyl-7-aminocoumarin was determined at an excitation wavelength of 365 nm and a fluorescence wavelength of 450 nm, using a fluorophotometer (FCA:manufactured by Baxter Travenol). The sample concentration required to cause 50% inhibition was expressed as the IC50 value, with the fluorescence value obtained from the same reaction in the absence of the sample taken as 100%.
# mice = experiment: Toxicity study; format: in vivo; settings: intravenously or intraperitoneally, 1,000 mg/kg
# Procedure: Compound 4 caused no death in mice when it was intravenously or intraperitoneally administered at 1,000 mg/kg.
# [2] = system: bone resorption as enhanced by PTH (parathyroid hormone); experiment: Determination of bone resorption suppressive activity (PTH-stimulated mouse femur culture); format: cell-based, female BALB/c mice; settings: 168 h, test compound 10 μg/ml, PTH 1 μM, cultured 7 days
# Procedure: The compounds [I] or salts thereof of this invention show suppressive action against bone resorption as enhanced by PTH (parathyroid hormone), and the action was determined by method described below. Determination of bone resorption suppressive activity
# Femurs were aseptically isolated from female BALB/c mice at 8-10 weeks of age. After the bone marrow cavity was washed with a Ham F12 medium containing 10 weight % thermally inactivated fetal calf serum, 100 unit/ml penicillin G and 100 unit/ml streptomycin (hereinafter referred to as culture broth), each femur was added to 1 ml of the culture broth and precultured for 3 hours at 37° C. in the presence of 5% carbon dioxide and 95% air. Each bone was transferred to 1 ml of the culture broth supplemented with PTH (manufactured by Peptide Institute, Inc., final concentration 1 μM) and the test compound (final concentration 10 μg/ml) and cultured for 7 more days, after which the total calcium content in the culture broth was determined using Calcium E-Test Wako (manufactured by Wako Pure Chemical Industries, Ltd.). The bone resorption suppressive activity of the test compound was calculated using the following equation.
# Bone resorption suppressive activity (%)=100×(Cp-Cs)/(Cp-Cc)
# Cc: Total calcium content in the culture broth containing neither PTH nor test compound
# Cp: Total calcium content in the culture broth containing PTH […]
# T1 sequence (P07711 114-333): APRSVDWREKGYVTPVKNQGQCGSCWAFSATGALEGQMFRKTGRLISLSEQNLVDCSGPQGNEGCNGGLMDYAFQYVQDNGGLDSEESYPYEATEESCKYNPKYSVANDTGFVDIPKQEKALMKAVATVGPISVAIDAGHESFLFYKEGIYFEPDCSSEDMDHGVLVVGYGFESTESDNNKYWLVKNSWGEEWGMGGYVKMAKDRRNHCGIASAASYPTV
SMILES,IC50 [1] [nM],death in mice (mice),activity at 10 µg/mL [2] [%]
"CC(C)CCNC(=O)[C@H](Cc1ccccc1)NC(=O)[C@H]1N[C@@H]1C(=O)[O-].[Na+] [Compound 4, N-[N-[(2S,3S)-3-Carboxyaziridine-2-carbonyl]-L-phenylalanyl]isopentylamine sodium salt]",13.5,no death,–
"CC(C)CCNC(=O)[C@H](Cc1ccccc1)NC(=O)[C@@H]1[C@@H](C(=O)O)N1C (stereo partly drawn) [Compound 43, N-[N-[(2S,3S)-N-Methyl-3-carboxyaziridine-2-carbonyl]-L-phenylalanyl]isopentylamine Sodium Salt]",0.522,–,–
"NCCCCNC(=O)[C@H](Cc1ccccc1)NC(=O)[C@H]1N[C@@H]1C(=O)O [Compound 7, N-[N-[(2S,3S)-3-carboxyaziridine-2-carbonyl]-L-phenylalanyl]-1,4-diaminobutane]",8.61,–,99
"CCN1[C@H](C(=O)O)[C@H]1C(=O)N[C@@H](Cc1ccccc1)C(=O)NCCC(C)C (stereo partly drawn) [Compound 45, N-[N-[(2S,3S)-N-Ethyl-3-Carboxyaziridine-2-carbonyl]-L-phenylalanyl]isopentylamine Sodium Salt]",0.252,–,–
